pIC50: −log10 of the molar value.

Assay [1] can be described thus: Inhibition of RET (unknown origin) expressed in […] cells assessed as reduction in cell viability incubated for 48 hrs by celltiter glo luminescence cell viability assay. On the technique in general: In ATP-based viability assays light output follows the ATP content of the culture.
Assay [2] in a line: Inhibition of KDR (unknown origin) expressed in […] cells assessed as reduction in cell viability incubated for 48 hrs by celltiter glo luminescence cell viability assay.

Take `CN(C)CCCNc1ccn2ncc(-c3ccc4c(c3)OCO4)c2n1`: the values for the pIC50 in assay [1] and in assay [2] were 5.40 and 5.05, respectively.
